According to the supplement of paper PMC13380429:

Legend:
Conditions in all cases: 72 h
Caco-2 [1] = experiment: cell viability relative to DMSO; higher = less toxic
HepG2 [2] = experiment: as above
U2OS [3] = experiment: as above
Calu-3 [4] = experiment: as above
Vero E6 [5] = experiment: as above
Caco-2 [6] = experiment: relative viability EC50 (midpoint between 100% and the lowest measured viability); higher = less toxic
HepG2 [7] = experiment: as above
U2OS [8] = experiment: as above
Calu-3 [9] = experiment: as above
Vero E6 [10] = experiment: as above
Caco-2 [11] = experiment: drug sensitivity score (DSS) for viability; higher = more toxic; extreme values may be limits of the assay
HepG2 [12] = experiment: as above
U2OS [13] = experiment: as above
Calu-3 [14] = experiment: as above
Vero E6 [15] = experiment: as above

Row | SMILES | cell viability (Caco-2 [1]; 1 nM) [%] | cell viability (Caco-2 [1]; 10 nM) [%] | cell viability (Caco-2 [1]; 100 nM) [%] | cell viability (Caco-2 [1]; 1000 nM) [%] | cell viability (Caco-2 [1]; 10000 nM) [%] | cell viability (HepG2 [2]; 1 nM) [%] | cell viability (HepG2 [2]; 10 nM) [%] | cell viability (HepG2 [2]; 100 nM) [%] | cell viability (HepG2 [2]; 1000 nM) [%] | cell viability (HepG2 [2]; 10000 nM) [%] | cell viability (U2OS [3]; 1 nM) [%] | cell viability (U2OS [3]; 10 nM) [%] | cell viability (U2OS [3]; 100 nM) [%] | cell viability (U2OS [3]; 1000 nM) [%] | cell viability (U2OS [3]; 10000 nM) [%] | cell viability (Calu-3 [4]; 1 nM) [%] | cell viability (Calu-3 [4]; 10 nM) [%] | cell viability (Calu-3 [4]; 100 nM) [%] | cell viability (Calu-3 [4]; 1000 nM) [%] | cell viability (Calu-3 [4]; 10000 nM) [%] | cell viability (Vero E6 [5]; 1 nM) [%] | cell viability (Vero E6 [5]; 10 nM) [%] | cell viability (Vero E6 [5]; 100 nM) [%] | cell viability (Vero E6 [5]; 1000 nM) [%] | cell viability (Vero E6 [5]; 10000 nM) [%] | relative viability EC50 (Caco-2 [6]) [µM] | relative viability EC50 (HepG2 [7]) [µM] | relative viability EC50 (U2OS [8]) [µM] | relative viability EC50 (Calu-3 [9]) [µM] | relative viability EC50 (Vero E6 [10]) [µM] | drug sensitivity score (Caco-2 [11]) | drug sensitivity score (HepG2 [12]) | drug sensitivity score (U2OS [13]) | drug sensitivity score (Calu-3 [14]) | drug sensitivity score (Vero E6 [15])
1 | NC(=O)c1ccc(N(C(N)=O)c2c(F)cccc2F)nc1-c1ccc(F)cc1F [VX-702] | 102 | 89.9 | 103 | 85.6 | 88.4 | 101 | 109 | 91.9 | 110 | 108 | 97.8 | 96.2 | 96.8 | 92.6 | 94.4 | 101 | 94.4 | 94 | 95.4 | 87.8 | 92.7 | 105 | 88.5 | 89.1 | 89.1 | > 10 | > 10 | > 10 | > 10 | > 10 | 1.1 | 0 | 0 | 0 | 0.7
2 | CCO[C@@H]1OC(=O)C[C@@H]1NC(=O)[C@@H]1CCCN1C(=O)[C@@H](NC(=O)c1ccc(N)c(Cl)c1)C(C)(C)C [VX-765] | 97.7 | 104 | 117 | 98 | 86 | 95.5 | 103 | 88.4 | 88.3 | 92.2 | 98.2 | 104 | 94.7 | 100 | 98.8 | 111 | 93.8 | 90.5 | 95.5 | 98.6 | 98.8 | 102 | 95.2 | 93.9 | 100 | > 10 | > 10 | > 10 | > 10 | > 10 | 0.3 | 0.9 | 0 | 0 | 0
3 | NC(=O)c1ncn([C@@H]2O[C@H](CO)[C@@H](O)[C@H]2O)c1N [acadesine] | 96.7 | 98.1 | 86.4 | 92.7 | 95.7 | 98.1 | 96.1 | 105 | 97.9 | 102 | 100 | 91.8 | 96.5 | 97.9 | 102 | 96.6 | 94.9 | 84.2 | 97.8 | 90.8 | 101 | 98 | 100 | 94.4 | 97.2 | > 10 | > 10 | > 10 | > 10 | > 10 | 0 | 0 | 0 | 0 | 0
4 | CC(=O)NCCCS(=O)(=O)O [acamprosate] | 109 | 102 | 101 | 96.3 | 114 | 111 | 98.1 | 94.5 | 90.2 | 110 | 95.7 | 99.3 | 99.3 | 102 | 99.2 | 104 | 102 | 97.9 | 105 | 103 | 102 | 99.5 | 106 | 103 | 103 | > 10 | > 10 | > 10 | > 10 | > 10 | 0 | 0 | 0 | 0 | 0
5 | CCCCC(CC)CNC(=N)NC(=N)NCCCCCCNC(=N)NC(=N)NCC(CC)CCCC (stereo not given) [alexidine] | 94.6 | 99.3 | 105 | 101 | 1.2 | 106 | 93.2 | 105 | 50.7 | 6 | 93.6 | 91.8 | 99.3 | 91 | 3.9 | 97.1 | 105 | 104 | 103 | 105 | 108 | 106 | 93.3 | 109 | 32.8 | 3.22 | 0.964 | 2.39 | > 10 | 3.73 | 5.4 | 11.2 | 6.8 | 0 | 3.1
6 | C=CC[C@]1(O)CC[C@H]2[C@@H]3CCC4=CC(=O)CCC4=C3C=C[C@@]21C [altrenogest] | 102 | 98.1 | 99 | 107 | 96.5 | 107 | 95.9 | 93.6 | 90.2 | 101 | 92.7 | 97.2 | 96.1 | 97.7 | 104 | 107 | 88 | 97.6 | 99 | 105 | 97 | 97.5 | 93.2 | 89.5 | 104 | > 10 | > 10 | > 10 | > 10 | > 10 | 0 | 0 | 0 | 0 | 0
7 | NC[C@@H](O)CC(=O)O [aminohydroxybutyric-acid] | 92.1 | 91 | 86.2 | 103 | 105 | 102 | 91.7 | 108 | 97.2 | 104 | 93.6 | 99.7 | 96.4 | 106 | 102 | 98.4 | 103 | 97.7 | 95.1 | 104 | 98.6 | 91.9 | 93.3 | 92.4 | 102 | > 10 | > 10 | > 10 | > 10 | > 10 | 0 | 0 | 0 | 0 | 0
